Entries after “also recorded” stand apart in the source; their conditions may differ.
Tests used:
[1] = Influence of TP-modification on activity of β-galactosidase; format: biochemical
Method: (§1) Analogous to sections 2.1 to 2.3 above the enzyme β-galactosidase was modified with TP. […] Subsequent to modification HepG2 cells were incubated with (TP) modified β-galactosidase (5 μM) for 1 h or 24 h and then fixed in paraformaldehyde. β-galactosidase activity was visualized by using X-Gal (see FIG. 6).

HepG2 cells [2] = assay: Uptake of β-galactosidase, activity visualized by X-Gal; format: cell-based; details: 5 μM; for cellular uptake of β-galactosidase / nuclear uptake of β-galactosidase: 1 h or 24 h
Method: as §1

intact cells = assay: Dependency of cellular and nuclear uptake on TP-substituent (chemical modification), intact cells; format: cell-based; details: chemically modified TP-substituent of FITC-BSA-TP
Method: 1.3 Modification of FITC-BSA-TP Conjugates FITC-BSA was reacted with a 10-fold excess of cystein in PBS (pH=8, He-saturated) for 3 h. Photometric determination of cleaved thiopyridone indicated complete reaction of FITC-BSA-TP to FITC-BSA-Cys. The conjugate was purified chromatographically (Sephadex G-25 superfine HR 10/10 column; Pharmacia, Uppsala, Sweden). FITC-BSA-TP was reacted in presence of 13 mM DTT for 2 h and purified by chromatography in order to obtain a FITC-BSA conjugate with free thiol-function. Determination of degree of conjugation with Ellmanns' reagent indicated complete separation of the thiopyridone moiety, which, in consequence, led to FITC-BSA-SH. The synthesized FITC-BSA-SH conjugate was further reacted with a 50-fold excess of N-ethylmaleimide for 2 h and purified by chromatography subsequently. Controlling the product for remaining thiol moieties by using Elmanns' reagent indicated a complete reaction to FITC-BSA-NEM. 1.4 Coupling of FITC and SPDP to plasmid-DNA Coupling of FITC and SPDP with plasmid-DNA was carried out by photochemical coupling using psoralenamin. Therefore, a kit from company Sima was used (PS-amine). Coupling was carried out following the manufacturers' instructions. 4 μl of reconstituted psoralenamine solution (4.83 psoralenamine) were pipetted to 100 μl solubilized DNA (μCLuc in pur. water, 200 μg/ml DNA). The resulting solution was vortexed vigorously. The solution was irradiated with UV (λ=366 nm, 6 watt, 850 μwatt/cm^2) for 45 minutes on ice. Portions of each 50 μl were purified using a G-25 Microspin column (Amersham) and, subsequently, 2 μl 1×PBS were added. To one 50 μl fraction of the purified Psoralenamin-coupled DNA 2 μl FITC-NHS solution ([…] in DMF) were added. To the other 50 μl fraction a mixture consisting of 2 μl FITC-NHS (10 mg/ml in DMF) 2 μl SPDP (10 mg/ml in EtOH) were added. The solutions were agitated for 1.5 h at room temperature. Subsequent thereto plasmid-DNA conjugates were purified repeatedly using a G-25 Microspin column (Amersham), and used for cell culture experiments. […]

HepG2 cells [3] = assay: Quantification of cellular and nuclear uptake by flow cytometry (FACS); format: cell-based; details: 1 h incubation; for nuclear uptake, nucleus associated FITC fluorescence (FACS): cell lysis with Nonidet P 40, released nucleoli; for cellular uptake (FACS): whole cells detached with trypsine
Method: Therefore, HepG2 cells were incubated for 1 h with FITC labelled constructs or with FITC labelled and TP-modified conjugates as used in experiments 1 to 4. After incubation cells were detached from the bottom of the cell culture plates (whole cells) by using either a trypsine containing solution or a trypsine containing solution supplemented with detergent Nonidet P 40. Detergent Nonidet P 40 leads to lysis of cytoplasm membranes and release of nucleoli. Propidiumiodid was added to trypsine buffer in order to identify the nucleoli.

HepG2 cells [4] = assay: Uptake in non-fixed and lysed cells, epifluorescence microscopy; format: cell-based
Method: In order to exclude artifacts resulting from fixing of cells FITC-modified BSA and FITC-BSA-TP conjugates (5 μM) were incubated for 1 h with HepG2 cells. Subsequently, cells were immediately transferred in PBS or lysed with lysis buffer within 30 minutes and analyzed via epifluorescence microscopy. […] Consequently, artifacts can be excluded due to fixing of cells.
Additionally, cytoplasma membrane of HepG2 of cells was lysed with lysis buffer (20 mM HEPES, 10 mM KCl, 0.5 mM EDTA, 0.1% Triton X-100, pH7.5) subsequent to incubation. […] Consequently, FITC-BSA-TP conjugates are localized in the nucleus.

HepG2 cells [5] = assay: Cellular and nuclear uptake, confocal laser scanning microscopy; format: cell-based
Method: (§2) Corresponding cell lines were seeded in 8-chamber sample carriers (Falcon, #4108, BD Bioscience, Belgium) resulting in about 70-80% confluence next day. Cells were incubated along with inventive conjugates for 1 h at 37° C. and 5% CO2 in an incubator (c=5 μM). Subsequently thereto cells were washed twice with PBS and fixed with a solution containing 4% paraformaldehyde. The nucleoli were colored by using the fluorescence dye DAPI (0.3 μM) or propidiumiodid (3 μM) and cells were embedded (Vectashield, Vector Laboratories, Burlingame, Calif., USA). Photographs were taken using a Sony 3CCD camera having an Axiovert 135-microscope (Carl-Zeiss, Göttingen, Germany; objective: Plan-Neofluar 100×/1.3 oil). Optical transsections for laser scanning microscopy were performed using a confocal microscope having three channels (TCS 4D; Leica Inc. Deerfield, Ill.) equipped with a Plan Apo 63×/1.32 oil objective). Both fluorescence dyes FITC and propidiumiodide were irradiated at wavelengths 488 nm and 567 nm using an argon/krypton laser. 256×256 8 bit pictures were generated having an axial distance of 250 nm and a pixel size of […]. Each picture series consisted of about 20-25 pictures. Both fluorochromes were mapped sequentially in the same nucleolus layer.
Confocal laser scanning microscopy was additionally carried out (see FIG. 3), since in epifluorescence, microscopy the resulting signal assumable may be due to association of the FITC-BSA-TP conjugates with the nuclear membrane.

HepG2 cells [6] = assay: Uptake of conjugates into cells, epifluorescence microscopy; format: cell-based; details: 1 h incubation, 5 μM, fixed with paraformaldehyde
Method: as §2
Therefore, HepG2 cells were incubated for 1 h with FITC-labelled BSA conjugates (5 μm) and fixed with paraformaldehyde. Results were analysed by epifluorescence microscopy (see FIG. 2). The cellular and nuclear epifluorescence photographs show an FITC signal of BSA in the left column and an FITC-BSA-TP signal in the right column. The corresponding nucleoli were colored using the fluorescent dye propidiumiodid.
Dextran constructs and modifications were prepared analogously to BSA constructs as shown above in section 2.1. As a starting material an amino-modified dextran was used having a molecular weight of 70,000 (MW). […] Analysis was carried out using epifluorescence microscopy (see FIG. 4). The corresponding nucleoli were colored using the fluorescent dye propidiumiodid.
Similar as shown in 2.1 and 2.2 IgG1 constructs were analyzed as to whether they may be transported into the cells upon TP modification. IgG1 constructs and modifications were prepared analogously to BSA and dextran constructs as shown above in sections 2.1 and 2.2. As a starting material bovine IgG was used having a molecular weight of approximately 130,000 (MW). […] Analysis was carried out using epifluorescence microscopy (see FIG. 5). The corresponding nucleoli were colored using the fluorescent dye propidiumiodid.
PEG based negatively charged liposomes were used showing distal unmodified (carboxylic moiety) or TP-modified PEG chains. The liposomes were modified with fluorescence labelled lipids. Thereafter, HepG2 cells were coincubated with fluorescence labelled liposomes and fixed at different times. In order to detect uptake by cells and nucleus, epifluorescence microscopy was carried out (see FIG. 7). The nucleoli were colored with DAPI. From top to bottom a control experiment and the results from 1, 1.5, 2.5 and 4 h incubation are shown.
Therefore, a reporter plasmid encoding the luciferase gene and having a size of 6.4 kb was TP modified and incubated with HepG2 cells for 1 h.

CHO cells = assay: Cell surface biotinylation for cargo (FITC-Avidin) uptake, FACS; format: cell-based; details: CHO cells pretreated 30 minutes at 4° C. at 185 μM, then 75 pmol FITC-Avidin, one hour at 37° C.
Method: (§3) Biotin-HPDP (Pierce, #21341) was solubilized in DMF and diluted in PBS (pH=7.4) to a final concentration of 100 μg/ml. 500 μl of this solution (=92.6 nmol) were incubated on CHO and HeLa cells (1×10^6 cells per Well) for 30 minutes at 4° C. After washing twice with PBS, 5 μg (=75 pmol) Avidin-FITC (Sigma, #A9275) were added and cells were incubated for 1 h at 37° C. After incubation, cells were washed twice with PBS and harvested with Trypsin-EDTA (Invitrogen, #25300-054). […] 1000 cells per sample were counted.
(§4) Instead of Biotin-HPDP, also Biotin (Sigma, #B4639), Biotin-Maleimid (Sigma, #B1267) or PBS (for determination of unspecific binding of Avidin-FITC) was incubated on the cells at equimolar concentrations.

HeLa cells = assay: as above; format: cell-based; details: HeLa cells pretreated 30 minutes at 4° C. at 185 μM, then 75 pmol FITC-Avidin, one hour at 37° C.
Method: as §3, §4

In the case of “FITC-β-galactosidase-TP: enzyme β-galactosidase modified with thiopyridyl via SPDP, conjugation degree about 1”, the “influence of TP-modification on activity of β-galactosidase” value [1] is reported as “does not exhibit any influence on activity of β-galactosidase”, the “cellular uptake of β-galactosidase” value (HepG2 cells [2]) is reported as “uptake of β-galactosidase into cytoplasm and nucleus into many cells” and the “nuclear uptake of β-galactosidase” value (HepG2 cells [2]) is reported as “uptake of β-galactosidase into cytoplasm and nucleus into many cells”. The “nuclear uptake of β-galactosidase” value (HepG2 cells [2]; listed as (TP) modified β-galactosidase) was “clearly observable” and the “positive cells and nucleoli” value (HepG2 cells [2]; 24 h incubation) was “almost all cells and their nucleoli showed a positive signal”.
In the case of “FITC-BSA-TP: FITC-labelled BSA reacted with SPDP; thiopyridyl (PDP) conjugation degree ~9-10 per BSA”, the “cellular or nuclear uptake” value (intact cells) is reported as “cellular and nuclear uptake are only observable if an intact TP-substituent is present”, the “nuclear uptake, nucleus associated FITC fluorescence (FACS)” value (shortened to “nuclear uptake … (FACS)”) (HepG2 cells [3]) is reported as 63% and the “cellular uptake (FACS)” value (HepG2 cells [3]) is reported as 78%. For the same compound, the “distribution in fixed versus non-fixed cells” value (HepG2 cells [4]; 5 μM, 1 h, transferred in PBS without fixing, epifluorescence) was “identical in both fixed and non-fixed HepG2 cells”, the “fluorescence signal after lysis of cytoplasma membrane” value (HepG2 cells [4]; lysis buffer with 0.1% Triton X-100 after incubation) was “a fluorescence signal was clearly observed in the nucleus” and the “cellular uptake (localization in the cytoplasm)” value (HepG2 cells [5]) was “cellular uptake”. The “nuclear uptake (localization in the nucleus)” value (HepG2 cells [5]) was “Uptake of BSA into the nucleus is clearly observable; also recorded: nuclear uptake of FITC-BSA-TP is observable”, the “cellular uptake (uptake into cytoplasm)” value (HepG2 cells [6]) was “uptake of FITC-BSA-TP constructs into cytoplasm and nucleus” and the “nuclear uptake (uptake into the nucleus)” value (HepG2 cells [6]) was “clearly observable; also recorded: uptake of FITC-BSA-TP constructs into cytoplasm and nucleus”.
In the case of Biotin-Maleimid, the “delivery of cargo (FITC-Avidin) to cells, FITC-positive cells by FACS” value (“delivery of cargo (FITC-Avidin) to cells” for short) (CHO cells) is reported as “highly efficient cargo accumulation at the cellular surface” and the “delivery of cargo (FITC-Avidin) to cells” value (HeLa cells) is reported as “highly efficient cargo accumulation at the cellular surface”.
In the case of “FITC-BSA-SH: FITC-BSA-TP reacted with DTT, giving FITC-BSA conjugate with free thiol-function”, the “cellular or nuclear uptake” value (intact cells) is reported as “Neither the free sulfhydryl moiety nor the sulfhydryl moiety blocked by N-ethylmaleimide mediated cellular or nuclear uptake”.
With FITC-Dextran the “nuclear uptake … (FACS)” value (HepG2 cells [3]) was 7%, the “cellular uptake (FACS)” value (HepG2 cells [3]) was 25% and the “cellular uptake (uptake into cytoplasm)” value (HepG2 cells [6]) was “Uptake of non-modified FITC-Dextran into cytoplasm of HepG2 cells could also be observed”. For the same compound, the “nuclear uptake (uptake into the nucleus)” value (HepG2 cells [6]) was “no uptake of FITC-Dextran into the nucleus could be observed”.
In the case of “FITC-BSA-NEM: FITC-BSA-SH reacted with excess N-ethylmaleimide, thiol blocked”, the “cellular or nuclear uptake” value (intact cells) is reported as “Neither the free sulfhydryl moiety nor the sulfhydryl moiety blocked by N-ethylmaleimide mediated cellular or nuclear uptake”.
In the case of O=C(CCCC[C@@H]1SC[C@@H]2NC(=O)N[C@@H]21)NCCCCCCNC(=O)CCSSc1ccccn1 [Biotin-HPDP, N-[6-(Biotinamido)hexyl]-3′-(2′-pyridyldithio)propionamide], the “delivery of cargo (FITC-Avidin) to cells” value (CHO cells) is reported as “efficiently deliver cargo molecules to cells” and the “delivery of cargo (FITC-Avidin) to cells” value (HeLa cells) is reported as “efficiently deliver cargo molecules to cells”.
With “non-modified β-galactosidase: enzyme β-galactosidase without TP modification, control” the “cellular uptake of β-galactosidase” value (HepG2 cells [2]) was “negligible” and the “nuclear uptake of β-galactosidase” value (HepG2 cells [2]) was “no nuclear uptake”.
In the case of “FITC-BSA: BSA labelled with carboxyfluorescein-N-hydroxysuccinimidester, without TP modification”, the “nuclear uptake … (FACS)” value (HepG2 cells [3]) is reported as 51%, the “cellular uptake (FACS)” value (HepG2 cells [3]) is reported as 55% and the “cellular uptake (localization in the cytoplasm)” value (HepG2 cells [5]) is reported as “localization in the cytoplasm”. For the same compound, the “nuclear uptake (localization in the nucleus)” value (HepG2 cells [5]) was “no localization of non-modified FITC-BSA in the nucleus could be observed”, the “cellular uptake (uptake into cytoplasm)” value (HepG2 cells [6]) was “Uptake of non-modified FITC-BSA into cytoplasm of HepG2 cells could also be observed” and the “nuclear uptake (uptake into the nucleus)” value (HepG2 cells [6]) was “no uptake of FITC-BSA into the nucleus could be observed”.
